Values joined by “and” are separate entries in the source; they are usually repeats but may differ in a detail not shown here. Equal values may be shown once. Read-outs that look alike come from different tables or passages of the source.
Tests used:
OATP2B1 = conditions: Supplementary table, ref previous reports (superscript numbers), cited from earlier work; for IC50: read-out: OATP2B1 IC50; for Ki: read-out: OATP2B1 Ki (asterisk)
OATP4C1 [1] = biological target: T1, OATP4C1 (Homo sapiens, UniProt Q6ZQN7); assay: Inhibition of OATP4C1-mediated T3 uptake in OATP4C1/MDCKII cells; conditions: for inhibition at 10 min, 100 µM: human; for alteration of OATP4C1-mediated transport (in words): 100 µM (theaflavin 50 µM); for Ki: Ki for OATP4C1 (average)
T1 sequence (Q6ZQN7 1-724): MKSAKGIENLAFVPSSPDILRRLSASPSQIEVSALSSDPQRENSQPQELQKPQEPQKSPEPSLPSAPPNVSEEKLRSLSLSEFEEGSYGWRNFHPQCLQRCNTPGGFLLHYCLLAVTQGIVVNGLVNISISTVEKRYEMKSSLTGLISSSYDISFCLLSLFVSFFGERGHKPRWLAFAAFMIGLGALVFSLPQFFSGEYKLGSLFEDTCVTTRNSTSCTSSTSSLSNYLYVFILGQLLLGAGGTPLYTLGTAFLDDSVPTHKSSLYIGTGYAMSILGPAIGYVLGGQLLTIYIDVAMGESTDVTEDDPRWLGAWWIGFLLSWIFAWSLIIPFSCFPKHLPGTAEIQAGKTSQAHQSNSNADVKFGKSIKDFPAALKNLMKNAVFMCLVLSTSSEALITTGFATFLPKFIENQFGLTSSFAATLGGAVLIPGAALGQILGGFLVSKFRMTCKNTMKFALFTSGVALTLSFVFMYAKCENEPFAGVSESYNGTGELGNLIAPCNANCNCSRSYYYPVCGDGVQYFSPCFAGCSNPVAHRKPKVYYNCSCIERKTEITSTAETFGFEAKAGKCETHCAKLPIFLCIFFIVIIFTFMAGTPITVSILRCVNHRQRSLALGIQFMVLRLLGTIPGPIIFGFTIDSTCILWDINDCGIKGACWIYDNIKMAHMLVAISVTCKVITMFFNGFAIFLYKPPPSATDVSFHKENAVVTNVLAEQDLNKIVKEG
Protocol: Figure 3 Screening of the effect of food ingredients on OATP4C1-mediated transport. Cells were incubated with 1 µM T3 with or without food ingredients for 10 min at 37 °C. The concentration of the compounds was 100 µM, except for theaflavin (50 µM). The amount of OATP4C1-mediated uptake was calculated by subtracting the nonspecific uptake of T3 by mock cells from the total cellular uptake by OATP4C1-expressing cells. […] Dashed line represents 100% (control uptake in the absence of food ingredient).
The MDCKII cells transfected with OATP4C1 or an empty vector were established in our laboratory [18].
The cellular uptake of T3 was measured in monolayer cell cultures grown in 24-well plates. Cells were seeded at a density of 2.0 × 10^5 cells/well. Thereafter, the cells were incubated in a culture medium containing 5 mM sodium butyrate for 24 h before the uptake study. […] Cellular uptake was initiated by adding T3-containing KH buffer with or without each flavonoid. Uptake was terminated after 10 min by replacing the incubation buffer with ice-cold KH buffer. The cells were washed twice with ice-cold KH buffer. The concentration of T3 was measured using liquid chromatography/tandem mass spectrometry (LC/MS/MS). Cellular uptake was presented as the uptake amount divided by the amount of cellular protein quantified using the Bradford protein assay. The experiment was performed in triplicate (n = 3) and repeated three times. Flavonoids, except ellagic acid, were dissolved in dimethyl sulfoxide (DMSO) at a final concentration of less than 0.5%. A stock solution of ellagic acid (20 mM) was obtained by dissolving it in 0.05 M NaOH and was further diluted to 100 µM in KH buffer (the pH was adjusted to 7.4).
The experiment was performed in triplicate (n = 3) and repeated three times.

OAT1 = conditions: Supplementary table; ref previous reports (superscript numbers); cited from earlier work
OAT3 = conditions: Supplementary table; ref previous reports (superscript numbers); cited from earlier work
OATP1B3 = conditions: Supplementary table, ref previous reports (superscript numbers), cited from earlier work; for IC50: read-out: OATP1B3 IC50; for Ki: read-out: OATP1B3 Ki (asterisk)
OATP1B1 = conditions: Supplementary table, ref previous reports (superscript numbers), cited from earlier work; for IC50: read-out: OATP1B1 IC50; for Ki: read-out: OATP1B1 Ki (asterisk)
OATP4C1 [2] = biological target: T1, OATP4C1; assay: Kinetic analysis of OATP4C1-mediated T3 uptake in the presence of inhibitors; assay type: cell-based; design: expressed in transfected cells; sodium butyrate induction before uptake
Protocol: Data are shown as the mean ± SE (n = 6). The kinetic curves were fitted to the Michaelis–Menten equation. […] Each curve represents the fitted line obtained by the kinetic analysis by JMP Pro 16.
The kinetic curves were fitted to the Michaelis–Menten equation. […] The experiment was performed in duplicate (n = 2) and repeated three times.

P-gp = conditions: Supplementary table; ref 40 of the supplement; cited from earlier work
[3] = pH 7.4, probe T3 (1 µM), OATP4C1 inhibition degree, 100 µM, Supplementary table
[4] = pH 7.4, probe T3 (1 µM), inhibition of OATP4C1-mediated transport, 100 µM compound, 1 µM T3, 10 min, 37 °C, without AA

Row | SMILES | inhibition at 10 min, 100 µM (OATP4C1 [1]; [3]) [%] | inhibition at 10 min, 100 µM (OATP4C1 [1]; [4]) [%] | OATP4C1 inhibition or elevation (class) (OATP4C1 [1]; Supplementary table) | inhibitory effect on OATP4C1-mediated transport in the presence of AA compared with its absence (OATP4C1 [1]; 100 µM compound, 10 µM AA) | IC50 (OATP2B1) | IC50 (OATP1B3) [µM] | further results
1 | O=c1c(-c2ccc(O)cc2)coc2cc(O)ccc12 [daidzein] | 40 | 40 |  |  | 22.3 µM and 20.7 µM |  | OATP4C1 inhibition or elevation (class) (OATP4C1 [1]): Yes; inhibitory effect on OATP4C1-mediated transport in the presence of AA compared with its absence (OATP4C1 [1]): weakened
2 | COc1cc(/C=C/C(=O)O)ccc1O [ferulic acid, Ferulic acid] |  |  | No |  |  |  | IC50 (OAT1): 9.01 µM; IC50 (OAT3): 7.35 ± 3.73 µM; alteration of OATP4C1-mediated transport (in words) (OATP4C1 [1]; 1 µM T3, 10 min, without AA): did not inhibit
3 | O=C(O)c1cc(O)c(O)c(O)c1 [gallic acid, Gallic acid] |  |  |  |  |  | 1.6 ± 0.6 | 
4 | O=c1c(-c2ccc(O)cc2)coc2cc(O)cc(O)c12 [genistein] |  |  | Yes | weakened |  |  | IC50 (OATP1B1): 14.9 ± 3.76 µM; inhibition at 10 min, 100 µM (OATP4C1 [1]; pH 7.4): 42%
5 | COc1cc(-c2oc3cc(O)cc(O)c3c(=O)c2O)ccc1O [isorhamnetin] |  |  | Yes | weakened | 0.82 µM | 3.1 | inhibition at 10 min, 100 µM (OATP4C1 [1]; pH 7.4): 18%
6 | O=c1c(O)c(-c2ccc(O)cc2)oc2cc(O)cc(O)c12 [kaempferol] |  |  |  |  | 20.7 ± 1.8 µM |  | IC50 (OATP1B1): 32.4 µM and 33 µM; Ki (OATP1B1): 16 ± 1.9 µM; Ki (OATP1B3): 24.4 ± 1.8 µM; Ki (OATP2B1): 15.1 ± 7.8 µM; IC50 (OATP4C1 [1]; IC50 for OATP4C1, AA(+) 10 µM, 1 µM T3, 10 min): 33.7 µM; IC50 (OATP4C1 [1]; IC50 for OATP4C1, AA(−), 1 µM T3, 10 min): 29.3 µM; Ki (OATP4C1 [1]; AA(+) 10 µM, 1 µM T3, 10 min): 28.8 µM; Ki (OATP4C1 [1]; AA(−), 1 µM T3, 10 min): 25.1 µM; Vmax of OATP4C1-mediated T3 uptake in the presence of the inhibitor (OATP4C1 [2]; inhibitor 30 µM, 10 µM AA, 10 min, 37 °C): 517 ± 92.6 pmol/mg Protein/10 min; manner of inhibition of OATP4C1-mediated T3 uptake (OATP4C1 [2]; kinetic analysis): competitive manner
7 | O=c1c(O)c(-c2ccc(O)c(O)c2)oc2cc(O)cc(O)c12 [quercetin] | 50 | ≥ 50 | Yes | weakened |  | 3.22 | Ki (OATP1B1): 8.8 ± 0.8 µM; Ki (OATP1B3): 7.8 ± 1.7 µM; Ki (OATP2B1): 8.7 ± 0.1 µM
8 | Oc1ccc(/C=C/c2cc(O)cc(O)c2)cc1 [resveratrol, Resveratrol] | 46 | 46 |  |  | 8.3 µM | 11.6 | IC50 (P-gp): 6.64 µM; IC50 (OATP1B1): 9.1 µM

Further lines, with some results ahead:

Row | inhibition at 10 min, 100 µM (OATP4C1 [1]; [3]) [%] | inhibition at 10 min, 100 µM (OATP4C1 [1]; [4]) [%] | OATP4C1 inhibition or elevation (class) (OATP4C1 [1]; Supplementary table) | inhibitory effect on OATP4C1-mediated transport in the presence of AA compared with its absence (OATP4C1 [1]; 100 µM compound, 10 µM AA) | SMILES | IC50 (OATP2B1) | IC50 (OATP1B3) [µM] | further results
9 |  |  | Elevation |  | O=c1oc2c(O)c(O)cc3c(=O)oc4c(O)c(O)cc1c4c23 [ellagic acid] |  |  | IC50 (OAT1): 0.207 µM; alteration of OATP4C1-mediated transport (in words) (OATP4C1 [1]; 1 µM T3, 10 min, without AA): did not inhibit; elevation of OATP4C1-mediated transport (OATP4C1 [1]; 100 µM compound, 1 µM T3, 10 min, 37 °C, without AA): 13%; OATP4C1 elevation degree (OATP4C1 [1]; 100 µM, Supplementary table): 13%
10 |  | 24 | No | weakened | O=c1c(O)c(-c2ccc(O)c(O)c2)oc2cc(O)ccc12 [fisetin] |  |  | 
11 | 52 | ≥ 50 | Yes | weakened | O=c1cc(-c2ccc(O)c(O)c2)oc2cc(O)cc(O)c12 [luteolin] | 0.42 µM |  | IC50 (OAT3): 4.2 µM
12 | 57 | ≥ 50 | Yes | weakened | O=c1c(O)c(-c2ccc(O)cc2O)oc2cc(O)cc(O)c12 [morin] |  |  | IC50 (OAT1): < 0.3 µM and 0.5 µM
